Reference: patent US5880314A, “Hydrochalcone derivatives, cosmetic compositions containing said derivatives and methods of producing the same” (priority 1995, dated 1999)

Columns and labels:
[1] = system: B16 melanoma cells; test: Melanoma cell depigmenting test (melanin production); assay type: cell-based; settings: 5 days, control as 100%; for activity at 0.01 µg/mL / activity at 0.03 µg/mL / activity at 0.3 µg/mL: Mus musculus, B16, 120 h
Description: (Melanoma Cell Depigmenting Test)
Effect of compounds in suppressing melanin pigment synthesis was tested by measuring change in color of B16 melanoma cells when the cells were cultured at a concentration which had no adverse effect on growth of the cells. B16 Melanoma cells (1×10^5) were inoculated on 60 mm petri dishes. After 24 hours, 1,3-bis(2,4-dihydroxyphenyl)propane synthesized in Production Example 3, 1,3-bis(2,4-diacetoxyphenyl)propane synthesized in Production Example 4 and 1,3-bis(2,4-didodecanoyloxyphenyl)propane were added to the each medium, and incubation was curried out for 5 days. After incubation, the cells recovered by trypsin treatment were suspended in 0.3 ml of phosphate buffer and subjected to ultrasonic treatment for cell disruption, 0.3 ml of 4N NaOH was added to the treated suspension and the resultant suspension was incubated at 60° C. for 2 hours. Absorbance was measured at 400 nm and the amount of released melanin was calculated by setting the control as 100%. In Comparative Examples, similar tests were carried out using dihydrophloretin, a hydrochalcone compound, in place of the compounds of the present invention.

[2] = system: skin; settings: combined in cosmetics; cited from earlier work
[3] = system: synthesis of melanin; settings: reported in the literature; cited from earlier work

Molecule | activity at 0.01 µg/mL ([1]; 0.01 μg/ml) | activity at 0.03 µg/mL ([1]; 0.03 μg/ml) | activity at 0.3 µg/mL ([1]; 0.30 μg/ml) | effect in suppressing the synthesis of melanin [3] | further results
CC(=O)Oc1ccc(CCCc2ccc(OC(C)=O)cc2OC(C)=O)c(OC(C)=O)c1 [1,3-bis(2,4-diacetoxyphenyl)propane] | 44% | 18% | 11% |  | 
CCCCCCCCCCCC(=O)Oc1ccc(CCCc2ccc(OC(=O)CCCCCCCCCCC)cc2OC(=O)CCCCCCCCCCC)c(OC(=O)CCCCCCCCCCC)c1 [1,3-bis(2,4-didodecanoyloxyphenyl)propane] | 28% | 9% | 7% |  | 
Oc1ccc(CCCc2ccc(O)cc2O)c(O)c1 [1,3-bis(2,4-dihydroxyphenyl)propane] | 31% | 10% | 7% |  | 
Oc1ccc(OCc2ccccc2)cc1 [hydroquinone monobenzyl ether] |  |  |  |  | lightening of skin darkened with deposited pigment [2]: effectively lightened; side effects [2]: side effects such as skin allergies and irritation
O=C(CCc1ccc(O)cc1)c1c(O)cc(O)cc1O[C@@H]1O[C@H](CO)[C@@H](O)[C@H](O)[C@H]1O [phlorizin] |  |  |  | have an effect in suppressing the synthesis of melanin | 
dihydrophloretin |  |  |  | have an effect in suppressing the synthesis of melanin | Melanin production (%) ([1]; 0.01 μg/ml): 92%; Melanin production (%) ([1]; 0.03 μg/ml): 80%; Melanin production (%) ([1]; 0.30 μg/ml): 65%
phlorezin |  |  |  | have an effect in suppressing the synthesis of melanin | 
phlorine |  |  |  | have an effect in suppressing the synthesis of melanin | 
